Values joined by “and” are separate entries in the source; they are usually repeats but may differ in a detail not shown here. Identical values can stand only once. Bridges are numbered along the chain shown (N, C = ends). Where no end group is shown, it is not given here.
Columns and labels:
[1] = tested on: Claudin-5 at tight junction of mouse brain endothelial bEnd.3 cells; experiment: Claudin-5 immunocytochemistry at tight junction in mouse brain endothelial cell cultures; format: cell-based
Description: To understand the effect of NX218 on the TEER and permeability of mouse brain endothelial cells in examples 3 and 4, the levels of the tight junction protein Claudin-5 were assessed using immunocytochemistry.
Mouse brain endothelial cells (bEnd.3, American Type Culture Collection) were cultured in DMEM supplemented with 10% fetal FBS and 2 mM sodium pyruvate in a 5% CO2 incubator at 37° C.
bEnd.3 cells were seeded on 1% fibronectin-coated Nunc Lab-Tek II Chamber Slides in culture medium (1×10^5 cells per well in 300 μL). Two days after seeding, cells were treated with vehicle or NX218 (1, 10 and 100 μM) for 1, 2 or 3 days. Cells were then fixed for 10 min at room temperature (RT) with 4% paraformaldehyde in phosphate buffered saline (PBS), washed twice with PBS and incubated with 5% normal goat serum and 0.05% Triton X-100 in PBS for 1 h at RT before overnight incubation with polyclonal rabbit anti-claudin-5 ( 1/100; 34-1600, Invitrogen) at 4° C. Cells were then washed three times with PBS and incubated with goat anti-rabbit Cy3 secondary antibody ( 1/500; ab6939, Abcam) for 2 h at RT and counterstained with Hoechst 33258 to visualize nuclei. The slide was removed from the chamber and mounted with Aqua Poly/Mount before visualization by confocal laser scanning/microscopy. Claudin-5 immunoreactivity (intensity) at membrane localization was finally quantified to evaluate Claudin-5 protein levels. The data are expressed as a percentage of the control condition.
A second independent experiment using the protocol described at example 5 was performed. Pooling the data from the 2 experiments (the first experiment was done in triplicate, the 2nd in duplicate, n=5) improves the statistical power and allow to reach statistical significance for a tendency observed at 72 hours timepoint.

[2] = tested on: mouse brain endothelial bEnd.3 cells; experiment: Transendothelial electrical resistance (TEER) of mouse brain endothelial cell monolayer on Transwell inserts; format: cell-based; conditions: for TEER change relative to control, Average / TEER change relative to control: bEnd.3
Description: To determine the effect of NX218 on transendothelial electrical resistance (TEER) of mouse brain endothelial cells, cells were grown on a semi-permeable membrane inserted in culture wells in presence or absence of NX218 and the TEER was recorded using electrodes placed on each side of the membrane and a resistance meter.
Mouse brain endothelial cells (bEnd.3, American Type Culture Collection) were cultured in Dulbecco's modified Eagle's Medium (DMEM) supplemented with 10% fetal bovine serum (FBS) and 2 mM sodium pyruvate in a 5% CO2 incubator at 37° C.
bEnd.3 cells were grown on 6.5-mm-diameter, 0.4-μm-pore, polyester membrane HTS Transwell inserts (5×10^4 cells per well containing 200 μL and 800 μL of culture medium in the apical and basolateral compartments respectively). Three days after seeding, cells were treated with vehicle or NX218 (1, 10 and 100 μM) for 1, 2 or 3 days. TEER values were measured using an EVOM resistance meter fitted with “chopstick” electrodes. One electrode was placed in the apical chamber and another one in the basolateral chamber. Before measurements, chambers were replaced with fresh medium.

W-S-G-W-S-S-C-S-R-S-C-G (WSGWSSCSRSCG; disulfide 7-11 (inferred)) [NX218]
Expression of Claudin-5 at tight junction ([1]; NX218 10 μM, 72 hours, bEnd.3, pooled data of 2 experiments (Table 12), individual replicates N1-N7): 71.70 % of Control and 116.80 % of Control and 122.30 % of Control and 113.50 % of Control and 97.80 % of Control and 75.30 % of Control and 87.00 % of Control
Expression of Claudin-5 at tight junction, Average ([1]; NX218 100 μM, 24 hours, bEnd.3, average of N1-N6): 180.5 % of Control
Expression of Claudin-5 at tight junction ([1]; NX218 100 μM, 24 hours, bEnd.3, individual replicates N1-N6): 173.3 % of Control and 212.5 % of Control and 249.5 % of Control and 129 % of Control and 161.7 % of Control and 157.1 % of Control
Expression of Claudin-5 at tight junction, Average ([1]; NX218 100 μM, 48 hours, bEnd.3, average of N1-N6): 98.79 % of Control
Expression of Claudin-5 at tight junction ([1]; NX218 100 μM, 48 hours, bEnd.3, individual replicates N1-N6): 88.39 % of Control and 55.18 % of Control and 80.87 % of Control and 122.7 % of Control and 115.5 % of Control and 130.1 % of Control
Expression of Claudin-5 at tight junction, Average ([1]; NX218 100 μM, 72 hours, bEnd.3, first experiment (Table 9), average of N1-N4): 106.6 % of Control
Expression of Claudin-5 at tight junction ([1]; NX218 100 μM, 72 hours, bEnd.3, first experiment (Table 9), individual replicates N1-N4): 121.8 % of Control and 116 % of Control and 81.03 % of Control and 107.7 % of Control
Expression of Claudin-5 at tight junction, Average ([1]; NX218 100 μM, 72 hours, bEnd.3, pooled data of 2 experiments (Table 12), average of N1-N7): 119.10 % of Control
Expression of Claudin-5 at tight junction ([1]; NX218 100 μM, 72 hours, bEnd.3, pooled data of 2 experiments (Table 12), individual replicates N1-N7): 134.20 % of Control and 124.40 % of Control and 109.30 % of Control and 120.30 % of Control and 130.70 % of Control and 105.10 % of Control and 109.40 % of Control
Claudin-5 levels, result in words ([1]; NX218 at 100 μM, pooled experiments, 72 hours): Increases of Claudin-5 levels were maintained for at-least 72 hours
Claudin-5 levels, result in words ([1]; after 2 or 3 days treatment (Tables 8, 9)): levels were similar between control and NX218 conditions
Resistance (TEER), result in words ([2]; 10 and 100 μM for 1, 2 or 3 days, compared with vehicle-treated monolayer): significantly increased in a dose dependent manner
TEER ([2]; FIG. 1, 1, 10, 100 μM for 24 h, 48 h or 72 h): increases the transendothelial electrical resistance of mouse brain endothelial cell monolayer in a dose-dependent manner
TEER change relative to control, Average ([2]; NX218 1 μM, 24 hours, average of N1-N6, control = 1): 1.095
TEER change relative to control ([2]; NX218 1 μM, 24 hours, individual replicates N1-N6): 1.096 and 1.109 and 0.9761 and 1.051 and 1.197 and 1.139
TEER change relative to control, Average ([2]; NX218 1 μM, 48 hours, average of N1-N9, control = 1): 1.089
TEER change relative to control ([2]; NX218 1 μM, 48 hours, individual replicates N1-N9): 1.149 and 1.219 and 1.194 and 0.9888 and 1.006 and 1.056 and 0.9841 and 1.196 and 1.011
TEER change relative to control, Average ([2]; NX218 1 μM, 72 hours, average of N1-N9, control = 1): 0.9718
TEER change relative to control ([2]; NX218 1 μM, 72 hours, individual replicates N1-N9): 0.9966 and 1.022 and 1.007 and 1.003 and 0.9525 and 0.9474 and 0.9315 and 0.9406 and 0.9452
TEER change relative to control, Average ([2]; NX218 10 μM, 24 hours, average of N1-N6, control = 1): 1.128
TEER change relative to control ([2]; NX218 10 μM, 24 hours, individual replicates N1-N6): 1.027 and 1.068 and 1.072 and 1.178 and 1.212 (2×)
TEER change relative to control, Average ([2]; NX218 10 μM, 48 hours, average of N1-N9, control = 1): 1.203
TEER change relative to control ([2]; NX218 10 μM, 48 hours, individual replicates N1-N9): 1.219 (2×) and 1.334 and 1.016 (2×) and 1.053 and 1.28 and 1.381 and 1.312
TEER change relative to control, Average ([2]; NX218 10 μM, 72 hours, average of N1-N9, control = 1): 1.196
TEER change relative to control ([2]; NX218 10 μM, 72 hours, individual replicates N1-N9): 1.27 and 1.255 and 1.239 and 1.187 (3×) and 1.151 and 1.146 (2×)
TEER change relative to control, Average ([2]; NX218 100 μM, 24 hours, average of N1-N6, control = 1): 1.307
TEER change relative to control ([2]; NX218 100 μM, 24 hours, individual replicates N1-N6): 1.218 and 1.283 and 1.142 and 1.454 and 1.373 and 1.37
TEER change relative to control, Average ([2]; NX218 100 μM, 48 hours, average of N1-N9, control = 1): 1.461
TEER change relative to control ([2]; NX218 100 μM, 48 hours, individual replicates N1-N9): 1.547 and 1.404 and 1.498 and 1.223 and 1.284 and 1.173 and 1.725 and 1.72 and 1.571
TEER change relative to control, Average ([2]; NX218 100 μM, 72 hours, average of N1-N9, control = 1): 1.446
TEER change relative to control ([2]; NX218 100 μM, 72 hours, individual replicates N1-N9): 1.467 and 1.553 and 1.624 and 1.436 and 1.457 and 1.584 and 1.237 and 1.306 and 1.347
